Measured values reported in ChEMBL document CHEMBL1201862, “PubChem BioAssay data set” (2004).
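Compound exposure: 48 hours, 5 concentrations, 96-well plates. Abbreviation: GI50, concentration required for 50% inhibition of growth.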 Activity calls are given as the source filed them. Cut-off read from the data, not from the text of the source: active = GI50 up to about 1.1 µM and inactive = higher.

Experiments:
Assay in all cases: growth of human tumour cells (NCI), 48 h
A498 = tested on: A498
A549 = tested on: A549
ACHN = tested on: ACHN
BT-549 = tested on: BT-549
CAKI-1 = tested on: CAKI-1
CCRF-CEM = tested on: CCRF-CEM
COLO 205 = tested on: COLO 205
DU-145 = tested on: DU-145
EKVX = tested on: EKVX
HCC 2998 = tested on: HCC 2998
HCT-116 = tested on: HCT-116
HCT-15 = tested on: HCT-15
HOP-62 = tested on: HOP-62
HOP-92 = tested on: HOP-92
HT-29 = tested on: HT-29
Hs-578T = tested on: Hs-578T
IGROV-1 = tested on: IGROV-1
K562 = tested on: K562
LOX IMVI = tested on: LOX IMVI
MCF7 = tested on: MCF7
MDA-MB-231 = tested on: MDA-MB-231
MDA-MB-435 = tested on: MDA-MB-435
MDA-N = tested on: MDA-N
MOLT-4 = tested on: MOLT-4
NCI-H226 = tested on: NCI-H226
NCI-H23 = tested on: NCI-H23
NCI-H460 = tested on: NCI-H460
NCI/ADR-RES = tested on: NCI/ADR-RES
OVCAR-3 = tested on: OVCAR-3
OVCAR-4 = tested on: OVCAR-4
OVCAR-5 = tested on: OVCAR-5
OVCAR-8 = tested on: OVCAR-8
PC-3 = tested on: PC-3
RPMI-8226 = tested on: RPMI-8226
RXF 393 = tested on: RXF 393
SF-268 = tested on: SF-268
SF-295 = tested on: SF-295
SF-539 = tested on: SF-539
SK-MEL-28 = tested on: SK-MEL-28
SK-MEL-2 = tested on: SK-MEL-2
SK-MEL-5 = tested on: SK-MEL-5
SK-OV-3 = tested on: SK-OV-3
SN12C = tested on: SN12C
SNB-19 = tested on: SNB-19
SNB-75 = tested on: SNB-75
SR = tested on: SR
SW-620 = tested on: SW-620
TK-10 = tested on: TK-10
U-251 = tested on: U-251
UACC-257 = tested on: UACC-257
UACC-62 = tested on: UACC-62
UO-31 = tested on: UO-31

Measured: GI50

CN1C(=O)[C@@H]2[C@@H]3c4ccccc4N[C@@H]3c3[nH]c4ccccc4c3[C@@H]2C1=O
18.8 µM: HCT-15
active: IGROV-1 0.0502 µM
inactive: A498 25.4 µM | A549 22.8 µM | ACHN 18.5 µM | BT-549 18.7 µM | CAKI-1 33.2 µM | CCRF-CEM 17.3 µM | COLO 205 17 µM | DU-145 41.7 µM | EKVX 27.1 µM | HCC 2998 18.2 µM | HCT-116 29.4 µM | HOP-62 19.5 µM | HOP-92 20 µM | HT-29 36.1 µM | Hs-578T 28.3 µM | K562 22.3 µM | LOX IMVI 20.6 µM | MCF7 22.4 µM | MDA-MB-231 21 µM | MDA-MB-435 23.3 µM | MDA-N 31.8 µM | MOLT-4 19.1 µM | NCI-H226 60.8 µM | NCI-H23 13.9 µM | NCI-H460 15.3 µM | NCI/ADR-RES 22.8 µM | OVCAR-3 16.6 µM | OVCAR-4 16.9 µM | OVCAR-5 20.1 µM | OVCAR-8 21.6 µM | PC-3 17.4 µM | RPMI-8226 18.7 µM | RXF 393 25 µM | SF-268 32.6 µM | SF-295 18.6 µM | SF-539 19 µM | SK-MEL-28 24.5 µM | SK-MEL-2 17.3 µM | SK-MEL-5 12.5 µM | SK-OV-3 26.1 µM | SN12C 29.5 µM | SNB-19 29.6 µM | SNB-75 31.6 µM | SR 15.8 µM | SW-620 29.2 µM | TK-10 23.8 µM | U-251 23.8 µM | UACC-257 17.9 µM | UACC-62 14.5 µM | UO-31 14.7 µM
